Among the data in patent publication US10392383B2, “3-(1H-benzo[d]imidazol-2-yl)-1H-pyrazolo[4,3-b]pyridines and therapeutic uses thereof” (Samumed, LLC, priority 2015, dated 2019) are inhibition, EC50 and Emax values, retold here.

Assay [1] concerns primary human fibroblasts derived from IPF patients (LL29 cells) treated with TGF-β1. The assay is described as follows: Inhibition of the fibrotic process: αSMA staining in TGF-β1-treated LL29 fibroblasts. It is filed as cell-based. Particulars: Fibroblast; for inhibition at 10 µM: LL29 fibroblasts treated with TGF-β1, Table 4, read-out: percent inhibition at 10 μM (given in parentheses for EC50 >10 μM); for pEC50: 96 h, LL29 fibroblasts treated with TGF-β1 (20 ng/mL), 4 days, Table 4. The essentials:
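IPF-derived LL29 fibroblasts in F12 with 1% FBS dosed with compound (11-point, 10 μM to 1.87 nM, 0.1% DMSO), then 20 ng/mL TGF-β1 after 1 h, and cultured 4 days at 37 °C. αSMA-positive cell fraction imaged after excluding SYTOX-positive cells, normalized to TGF-β1/DMSO wells; EC50 by non-linear regression, % inhibition at 10 μM if EC50 >10 μM.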

Assay [2] deals with primary human mesenchymal stem cells (hMSCs). The assay can be described thus: Induction of chondrogenesis in human mesenchymal stem cells (nodule staining with Rhodamine B / Nile Red). It is filed as cell-based. Particulars: for Emax: TGF-β3 (10 ng/mL) as positive control, read-out: Max. Activity as % TGF-β3 activity; for EC50: concentration required to induce 50% levels of chondrogenesis vs TGF-β3, read-out: Conc (nM) of 50% TGF-β3 activity. A digest of the protocol: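 Primary hMSCs (passage 3–6) in incomplete chondrogenic induction medium were exposed 6 days at 37° C to compound (1:3 dilutions, 2700–10 nM in 96-well or 5000–2.2 nM in 384-well; 0.03% DMSO). Nodules stained with Rhodamine B/Nile Red were imaged; area normalized to DMSO wells for EC50, maximal activity and dose at maximum.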

Structures are written as SMILES. pEC50: −log10 of the molar value.

For orientation: inhibition means the share of the control response that was lost under treatment. A word on the pEC50: it is the EC50 on a negative log10 scale, so that one unit is a factor of ten. Regarding `COc1cncc(-c2ccc3[nH]nc(-c4nc5c(-c6cccc(F)c6)cccc5[nH]4)c3n2)c1` [Compound 516, 3-(4-(3-Fluorophenyl)-1H-benzo[d]imidazol-2-yl)-5-(5-methoxypyridin-3-yl)-1H-pyrazolo[4,3-b]pyridine], in assay [1], the inhibition at 10 µM is 0% and the pEC50 is < 5.00. For the same molecule, in assay [2], the Emax was 54% and the EC50 turned out to be 2 nM.
Regarding `Cc1ccncc1-c1ccc2[nH]nc(-c3nc4c(-c5ccsc5)cccc4[nH]3)c2n1` [Compound 285, 5-(4-Methylpyridin-3-yl)-3-(4-(thiophen-3-yl)-1H-benzo[d]imidazol-2-yl)-1H-pyrazolo[4,3-b]pyridine], in assay [1], the inhibition at 10 µM came out at 0% and the pEC50 is < 5.00. In assay [2], the Emax came out at 32%.
With `CN(C)c1cncc(-c2ccc3[nH]nc(-c4nc5c(-c6cccc(F)c6)cccc5[nH]4)c3n2)c1` [Compound 7, 5-(3-(4-(3-fluorophenyl)-1H-benzo[d]imidazol-2-yl)-1H-pyrazolo[4,3-b]pyridin-5-yl)-N,N-dimethylpyridin-3-amine], in assay [1], the pEC50 was 5.84. Moreover, in assay [2], the Emax was 53% and the EC50 came out at 30 nM.
With `FC1(F)CCN(Cc2cncc(-c3ccc4[nH]nc(-c5nc6c(-c7ccsc7)cccc6[nH]5)c4n3)c2)C1` [Compound 306, 5-(5-((3,3-Difluoropyrrolidin-1-yl)methyl)pyridin-3-yl)-3-(4-(thiophen-3-yl)-1H-benzo[d]imidazol-2-yl)-1H-pyrazolo[4,3-b]pyridine], in assay [1], the pEC50 is 5.91. In addition, the Emax in assay [2] amounted to 39%.
On to `c1cncc(-c2ccc3[nH]nc(-c4nc5ccccc5[nH]4)c3n2)c1` [Compound 256, 3-(1H-Benzo[d]imidazol-2-yl)-5-(pyridin-3-yl)-1H-pyrazolo[4,3-b]pyridine], for which, in assay [1], the inhibition at 10 µM came out at 0% and the pEC50 was < 5.00. Also, in assay [2], the Emax stood at 85% and the EC50 came out at 10 nM.
For `Cn1cc(-c2ccc3[nH]nc(-c4nc5c(-c6cccc(F)c6)cccc5[nH]4)c3n2)cn1` [Compound 508, 3-(4-(3-Fluorophenyl)-1H-benzo[d]imidazol-2-yl)-5-(1-methyl-1H-pyrazol-4-yl)-1H-pyrazolo[4,3-b]pyridine], the pEC50 in assay [1] is 5.95. Moreover, in assay [2], the Emax amounted to 48%.
